The source of these data is paper PMC9697976, “Giardia lamblia G6PD::6PGL Fused Protein Inhibitors Decrease Trophozoite Viability: A New Alternative against Giardiasis” (International Journal of Molecular Sciences, 2022).

Like-named read-outs stand apart in the source and are kept apart here. A value given as a limit tells only on which side of the number the result lay.

The target of data set [1] is T1, G6PD::6PGL fused enzyme (Giardia intestinalis, UniProt A8BWM5). Put plainly: Enzymatic inhibition assay (concentration-dependent inactivation) of G6PD::6PGL. Format: biochemical, Giardia lamblia. The settings on record: for inhibition at 200 µM: read-out: Loss of initial G6PD::6PGL activity. As for the experimental part: G6PD::6PGL protein was adjusted at 0.2 mg/mL and incubated in the presence of different concentrations of compounds (0–800 μM). After incubation, aliquots were withdrawn from the samples, and the residual activity was determined. The G6PD::6PGL without compounds was used to determine 100% activity. The assays were carried out in triplicate, and the data represent the mean ± standard error.
T1 sequence (A8BWM5 entry or part of it): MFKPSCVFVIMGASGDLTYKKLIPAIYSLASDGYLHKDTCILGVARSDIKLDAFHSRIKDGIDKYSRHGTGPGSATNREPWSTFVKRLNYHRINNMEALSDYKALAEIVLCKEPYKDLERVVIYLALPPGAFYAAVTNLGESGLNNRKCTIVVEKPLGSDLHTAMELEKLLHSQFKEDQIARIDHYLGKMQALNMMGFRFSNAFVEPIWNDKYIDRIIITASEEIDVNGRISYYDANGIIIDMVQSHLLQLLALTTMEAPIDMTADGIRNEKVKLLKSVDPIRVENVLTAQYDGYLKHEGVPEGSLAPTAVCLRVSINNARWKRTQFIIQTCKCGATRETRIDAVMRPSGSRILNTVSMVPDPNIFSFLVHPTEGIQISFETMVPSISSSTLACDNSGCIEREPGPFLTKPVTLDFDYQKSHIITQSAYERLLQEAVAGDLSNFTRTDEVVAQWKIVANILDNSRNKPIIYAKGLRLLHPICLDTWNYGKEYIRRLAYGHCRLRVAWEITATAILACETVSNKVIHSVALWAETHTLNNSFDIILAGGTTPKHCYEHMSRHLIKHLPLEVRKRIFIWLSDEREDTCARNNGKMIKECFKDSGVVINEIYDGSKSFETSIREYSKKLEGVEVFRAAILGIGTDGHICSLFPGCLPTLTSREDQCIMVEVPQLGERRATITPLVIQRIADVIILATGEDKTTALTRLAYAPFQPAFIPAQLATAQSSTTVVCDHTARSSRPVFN
The IC50 values of the four selected compounds were determined. […] The assay was performed using a protein concentration of 0.2 mg/mL in buffer T (100 mM Tris–HCl, 30 mM MgCl2, pH 8) with different concentrations of the compounds (0 to 800 µM). The protein was incubated at 37 °C for 2 h after the residual activity of the G6PD domain was measured. The data were plotted as percent activity, where 100% was taken as the enzyme’s activity without compounds. All values were adjusted to the Boltzmann sigmoid equation in the Origin 8.0® program (Northampton, MA, USA) to obtain the IC50 value expressed in µM units.

Data set [2] deals with T1, G6PD::6PGL fused enzyme. The data set is described as follows: Screening of in-house library on G6PD::6PGL activity at 400 µM. Format: biochemical, Giardia lamblia. As for the experimental part: The effects of 120 organic molecules from the in-house chemical library of compounds, which were synthesized in the Medicinal Chemistry Laboratory at the Pharmacy Faculty of the Autonomous University Morelos State, include mainly aromatic and non-aromatic heterocyclic compounds with heteroatoms such as nitrogen, oxygen, and sulfur, which were evaluated as possible specific inhibitors of G6PD::6PGL. The assay was carried out following what was reported by Martinez-Rosas et al.; each compound was dissolved in dimethyl sulfoxide (DMSO), and the recombinant enzyme G6PD::6PGL (0.2 mg/mL) was incubated with the compounds at a concentration of 400 µM, for 2 h, at 37 °C. The residual enzymatic activity of the G6PD domain was measured following the spectrophotometric NADP^+ reduction at 340 nm with the standard reaction mixture. Activity data were plotted as percent residual activity, where 100% activity was taken from enzyme samples incubated without a compound.

For data set [3], the system named is Caco-2 cells. The data set is described as follows: in vitro. Particulars: 250 µM compound. The protocol: (§1) An XTT cell proliferation assay determined the viability.
(§2) The cytotoxicity assay was performed using human cell lines Caco-2 (ATCC HTB-37) and HT29 (ATCC HHTB-38) with a Cell Proliferation Kit II (XTT; St Louis, MO, USA). A cell suspension of 2 × 10^5 cells/mL was prepared in Dulbecco’s modified Eagle’s (DMEM) medium, supplemented with 10% inactivated fetal bovine serum and 1% penicillin/streptomycin (5000 U/mL), and 100 µL portions of the suspension were added to the wells of 96-well plates. The plates were incubated for 24 h at 37 °C in an atmosphere of 5% CO2. The medium in each well was replaced with 100 µL medium with compounds at 500, 250, 150, 75, 32, and 16 µM. After 48 h of incubation at 37 °C in an atmosphere of 5% CO2, the viability of cells was determined. The medium in each well was gently replaced with 100 µL of fresh medium, 50 µL of XTT labeling mixture was added per well, the mixture was incubated for four h at 37 °C and 5% CO2, and the absorbance at 495 nm was measured. Each compound was assayed in triplicate via three independent experiments. The CCI50 values were determined using the nonlinear regression function of GraphPad Prism version 6.04 for Windows.

The next data set deals with G. lamblia trophozoites. The data set is described as follows: Antigiardial activity, trophozoite viability (trypan blue). Format: cell-based. The settings on record: Giardia duodenalis, 48 h, read-out: IC50 G. lamblia (trophozoite viability). As for the experimental part:
The trophozoites were incubated in the presence of compounds for 48 h at 37 °C with increasing concentrations of each of the compounds, and later the viability of the trophozoites was determined. The values represent mean ± standard deviation from three independent experiments, and standard errors of the mean were lower than 5%.
The Giardia lamblia WB strain (ATCC number 30957) was grown and cultivated in a modified TYI-S-33 medium supplemented with 10% fetal bovine serum at 37 °C. G. lamblia was harvested from a confluent culture by chilling the tubes on ice for 5–10 min to detach cells, followed by centrifugation at 800× g for 5 min. For the antigiardial activity assay, 5 × 10^4 trophozoites of G. lamblia were incubated with different concentrations of the compounds (31, 62, 125, 250, and 500 µM) in a final volume of 1.5 mL and then incubated for 48 h at 37 °C. After incubation, 75 µL of the treated trophozoites were subcultured individually for another 48 h in a fresh medium without compounds. At the end of this period, the viable trophozoites were counted using trypan blue. Each compound was assayed in three independent experiments. Appropriate controls were tested in each assay, including a sample without compounds and another with only 2% DMSO.

Data set [4] has as its system HT29 cells. The data set is described as follows: In vitro cytotoxicity, XTT assay, HT29. The settings on record: for Decrease of HT29 cell viability: 250 µM compound; for Selectivity index (SI), CC50 HT29 / IC50 G. lamblia: ratio of CC50/IC50 between mammalian cells and trophozoites. As for the experimental part:
as §1, §2

The target in data set [5] is T1, G6PD::6PGL fused enzyme. The data set is described as follows: Second-order inactivation constant (k2) of G6PD::6PGL. It counts as biochemical, Giardia lamblia. The settings on record: for kinact/KI: read-out: Second-order inactivation constant (k2). As for the experimental part:
At the indicated times, aliquots were withdrawn from the samples and assayed for residual activity. Initial velocity was fitted to determine each compound’s pseudo-first-order inactivation constants (k1). […] All experiments were performed in triplicate.
Inactivation assays were performed to determine the rate of each to form the enzyme–inhibitor complex. First, the pseudo-first-order constants (k1) were obtained by incubating 0.2 mg/mL of pure G6PD::6PGL enzyme and different concentrations of compound (0 to 500 µM) at 37 °C in time intervals (0–120 min). After the incubation period, enzyme activity was measured spectrophotometrically following the reduction of NADP^+ at 340 nm for each experimental condition. The results were expressed in terms of the activity percentage against each compound’s concentration. The residual activity data were fitted to a mono-exponential decay model, using the equation AR=A0 e^−kt , where AR is the residual activity at different times, A0 is the activity at the initial time, and k is the pseudo-first-order inactivation constant (min^−1). Subsequently, the constants obtained were plotted against the corresponding inhibitor concentration. A linear regression model was applied to obtain the second-order inactivation constant k2 (M^−1 s^−1).

Data set [6] has as its target T2, HsG6PD (Homo sapiens, UniProt P11413). The data set is described as follows: Effect of compounds on HsG6PD activity at 400 µM. Format: biochemical. The source says:
Based on the above, we decided to evaluate the effect in vitro of the compounds in the inactivation of the G6PD::6PGL enzyme.

For data set [7], the target named is T2, HsG6PD. Further details: method as in earlier work. Particulars: ref 24 (Ramirez-Nava et al.); cited from earlier work.
A further data set is described as follows: in vitro. Particulars: human, Caco-2. The protocol:
as §1, §2

Data set [8] can be described thus: In vitro cytotoxicity, XTT assay, HT29. The settings on record: human. The protocol: as §1, §2
Data set [9] concerns Caco-2 cells. Particulars: cited from earlier work.
The subject of data set [10] is HT29 cells. The settings on record: nitazoxanide; cited from earlier work.
The mark [11] stands for this setting: read-out: G6PD::6PGL Inhibition (%) at (400 μM).
Where [12] appears, read: read-out: G6PD::6PGL IC50, 0.2 mg/mL enzyme, 0–800 μM compound, 2 h, 37 °C.
Where [13] appears, read: read-out: G6PD::6PGL Inhibition (%) at (400 μM), 400 μM compound, 0.2 mg/mL enzyme, 2 h, 37 °C.
[14] abbreviates: 400 μM compound, read-out: HsG6PD Inhibition (%) at (400 μM).

T2 sequence (P11413 whole entry): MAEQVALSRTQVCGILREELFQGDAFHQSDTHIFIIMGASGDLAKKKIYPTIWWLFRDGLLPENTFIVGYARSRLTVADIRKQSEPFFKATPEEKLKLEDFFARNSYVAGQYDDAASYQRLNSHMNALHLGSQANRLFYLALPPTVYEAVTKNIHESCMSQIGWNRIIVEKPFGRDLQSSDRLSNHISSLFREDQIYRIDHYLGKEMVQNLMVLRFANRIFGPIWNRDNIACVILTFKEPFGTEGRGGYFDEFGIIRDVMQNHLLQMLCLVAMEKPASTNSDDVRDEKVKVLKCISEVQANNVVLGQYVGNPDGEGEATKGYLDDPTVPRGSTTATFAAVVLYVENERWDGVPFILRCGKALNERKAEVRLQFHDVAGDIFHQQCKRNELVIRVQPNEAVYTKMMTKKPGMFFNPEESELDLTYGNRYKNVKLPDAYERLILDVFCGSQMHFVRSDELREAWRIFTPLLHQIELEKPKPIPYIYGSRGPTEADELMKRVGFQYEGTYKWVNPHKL

`O=C1CC(=O)NC(=O)N1` [Barbituric acid, reference compound] displayed an IC50 at G6PD::6PGL fused enzyme [1] above 500 µM. At G6PD::6PGL fused enzyme [2] (setting [11]), the inhibition at 400 µM amounted to 0%.
Take `O=C1NC(=O)C(=Cc2ccc(OCc3ccccc3)cc2)C(=O)N1` [CMC-1]: the “Decrease of Caco-2 cell viability” value in the data set with Caco-2 cells [3] is listed as “approximately 20%”. Besides, the figures for the IC50 in the data set with G. lamblia trophozoites and on G6PD::6PGL fused enzyme [1] were 24.1 µM and 70 µM, respectively. In addition, the inhibition at 200 µM on G6PD::6PGL fused enzyme [1] (2 h) was 100%. Moreover, the inhibition at 400 µM on G6PD::6PGL fused enzyme [2] (setting [11]) is 98%; at HsG6PD [6] (read-out: HsG6PD Inhibition (%) at (400 μM), 400 μM compound) it was around 34%. Besides, the “Decrease of HT29 cell viability” value in the data set on HT29 cells [4] is on record as 25%. Further, at G6PD::6PGL fused enzyme [5] (0.2 mg/mL enzyme, 37 °C, 0–120 min), the “Second-order inactivation constant (k2)” value came out at 0.97 M⁻¹ s⁻¹.
For `CCCCOc1ccc(NC(=O)Nc2nc([N+](=O)[O-])cs2)cc1` [CNZ-7], the IC50 at HsG6PD [7] is 274 µM; in the data set with G. lamblia trophozoites (37 °C, WB strain), 8.7 µM; at G6PD::6PGL fused enzyme [1] (setting [12]), 150 µM. Besides, the CC50 at 48 h in the data set “in vitro” was 640 µM; in data set [8] (HT29 cells), 529 µM. Moreover, the selectivity ratio at 48 h in the data set “in vitro” worked out at 74. For the same molecule, the “Decrease of Caco-2 cell viability” value in the data set with Caco-2 cells [3] is “approximately 20%”. The inhibition at 200 µM on G6PD::6PGL fused enzyme [1] (2 h) was 60%. Moreover, the values for the inhibition at 400 µM on G6PD::6PGL fused enzyme [2] (setting [13]) and at HsG6PD [6] (setting [14]) were 85% and 68%, respectively. Also, the “Decrease of HT29 cell viability” value with HT29 cells [4] stood at 25%. Further, the “Selectivity index (SI), CC50 HT29 / IC50 G. lamblia” value in the data set on HT29 cells [4] is reported as 60. For the same molecule, the kinact/KI on G6PD::6PGL fused enzyme [5] is 0.97 M⁻¹ s⁻¹.
As for `O=C(Nc1ccc([N+](=O)[O-])cc1)Nc1nc([N+](=O)[O-])cs1` [CNZ-8], the CC50 at 48 h came out at 633 µM in the data set “in vitro” and 622 µM in data set [8]. The selectivity ratio at 48 h in the data set “in vitro” was found to be 41. For the same molecule, the “Decrease of Caco-2 cell viability” value in the data set on Caco-2 cells [3] is listed as “approximately 20%”. The IC50 with G. lamblia trophozoites (37 °C, WB strain) was 15.2 µM; at G6PD::6PGL fused enzyme [1] (setting [12]), 80 µM. For the same molecule, on G6PD::6PGL fused enzyme [1] (2 h), the inhibition at 200 µM is 80%. Besides, the values for the inhibition at 400 µM at G6PD::6PGL fused enzyme [2] (setting [13]) and on HsG6PD [6] (setting [14]) were 75% and 43%, respectively. Besides, the “Decrease of HT29 cell viability” value in the data set with HT29 cells [4] is recorded as 25%. The “Selectivity index (SI), CC50 HT29 / IC50 G. lamblia” value in the data set on HT29 cells [4] turned out to be 41. Also, at G6PD::6PGL fused enzyme [5], the kinact/KI is 0.6 M⁻¹ s⁻¹.
On to `CCCCCC(=O)Nc1nc([N+](=O)[O-])cs1` [FLP-2], for which the CC50 at 48 h came out at 3180 µM in the data set “in vitro” and 1910 µM in data set [8] (HT29 cells). Further, in the data set “in vitro”, the selectivity ratio at 48 h was determined as 208. For the same molecule, the concentration for half-maximal inhibition (IC50) in the data set on G. lamblia trophozoites (37 °C, WB strain) turned out to be 15.3 µM; on G6PD::6PGL fused enzyme [1] (setting [12]), 256 µM. Moreover, at G6PD::6PGL fused enzyme [1] (2 h), the inhibition at 200 µM is 40%. The inhibition at 400 µM on G6PD::6PGL fused enzyme [2] (setting [13]) is 89%; at HsG6PD [6] (setting [14]), around 20%. Besides, the “Selectivity index (SI), CC50 HT29 / IC50 G. lamblia” value in the data set on HT29 cells [4] is on record as 125. In addition, the kinact/KI at G6PD::6PGL fused enzyme [5] came to 0.82 M⁻¹ s⁻¹.
Regarding `Cc1ncc([N+](=O)[O-])n1CCO` [Metronidazole, reference compound], the IC50 with G. lamblia trophozoites (37 °C, WB strain) came to 4.8 µM. Moreover, the “CC50 Caco-2 (literature IC50)” value with Caco-2 cells [9] (metronidazole) is listed as 19 µM.
Take `CC(=O)Oc1ccccc1C(=O)Nc1ncc([N+](=O)[O-])s1` [Nitazoxanide, reference compound]: the selectivity ratio at 48 h in “in vitro” came to 7. Further, the IC50 in the data set with G. lamblia trophozoites stood at 4.2 µM; against G6PD::6PGL fused enzyme [1] it was 78 µM. Also, at G6PD::6PGL fused enzyme [2] (setting [13]), the inhibition at 400 µM turned out to be 100%. In addition, the “Selectivity index (SI), CC50 HT29 / IC50 G. lamblia” value in the data set on HT29 cells [4] is given as 12. The “CC50 Caco-2 (literature IC50)” value with Caco-2 cells [9] (nitazoxanide) is 26.8 µM. Moreover, the “CC50 HT29 (literature IC50)” value in the data set on HT29 cells [10] was above 50 µM.
